Here are results for 19 molecules from EP4806898A1, “HETEROARYL DERIVATIVE COMPOUND AND USE THEREOF” (Voronoi Inc., priority 2023, dated 2025).

Bounds are passed on as bounds.

In the experiment the target is T1, recombinant USP1 protein (Homo sapiens, UniProt O94782, DEL125-138/DEL229-408/DEL608-737).
T1 sequence (O94782 with tags, fused parts or gaps DEL125-138/DEL229-408/DEL608-737): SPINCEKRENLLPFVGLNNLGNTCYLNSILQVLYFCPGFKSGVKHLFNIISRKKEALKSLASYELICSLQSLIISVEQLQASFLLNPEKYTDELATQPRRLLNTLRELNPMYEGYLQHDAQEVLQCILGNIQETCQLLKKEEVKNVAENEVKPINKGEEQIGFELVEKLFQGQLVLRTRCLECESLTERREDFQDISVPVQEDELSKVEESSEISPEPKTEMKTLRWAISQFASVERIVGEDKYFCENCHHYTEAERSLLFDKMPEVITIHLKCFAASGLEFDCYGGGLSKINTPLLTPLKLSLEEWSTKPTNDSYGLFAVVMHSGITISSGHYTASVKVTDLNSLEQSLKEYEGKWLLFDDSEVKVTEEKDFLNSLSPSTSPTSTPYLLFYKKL
Description: Binding affinity to recombinant USP1 protein by differential scanning fluorimetry. The conditions noted are these: compound 100 µM; 0.03 mg/mL USP1 (Δ1-66, Δ125-138, Δ229-408, Δ608-737); Tm with compound minus Tm with DMSO; read-out: ΔTm (°C). On the procedure:
<Experimental Example 1> Confirmation and evaluation of the binding affinity to recombinant USP1 protein
To evaluate the binding affinity of the compounds of the present invention to the USP1 protein, the following experiment was performed using differential scanning fluorimetry.
Recombinant 0.03 mg/mL USP1 (Δ1-66, Δ125-138, Δ229-408, Δ608-737) protein, dye reagent, and buffer solution (50 mM Tris-HCl pH 8.0, 150 mM NaCl, 2% glycerol, 1 mM DTT) were mixed and 19 µL of the mixture was dispensed into a well plate (MicroAmp Fast 96-Well Reaction plate, 0.1 mL). Each compound was injected at a final concentration of 100 µM in an amount of 1 µL, and the plate containing a total of 20 µL was sealed with MicroAmp Optical Adhesive Film. The melting temperature (Tm) of the protein in each well was measured using a real-time PCR (RT-PCR) device. The difference between the Tm of the sample containing the compound and the Tm containing DMSO is referred to as delta Tm (ΔTm), where a larger ΔTm value indicates stronger binding affinity. The degree of temperature at which the protein is modified in the presence of the compound compared to DMSO was calculated according to Equation 1 below: [formula]
A general note: In DSF a fluorescence change marks the thermal transition of the protein.

A word on the ΔTm: it is the shift of the melting midpoint relative to a reference. Turning to `COc1ncnc(C2CC2)c1-c1ncc2cc(C(=O)N3CC4CCC(C3)N4)n(Cc3ccc(-c4nc(C(F)(F)F)cn4C(C)C)cc3)c2n1` [Example 16, (3,8-diazabicyclo[3 .2.1]octan-3-yl)(2-(4-cyclopropyl-6-methoxypyrimidin-5-yl)-7-(4-(1-isopropyl-4-(trifluoromethyl)-1H-imidazol-2-yl)benzyl)-7H-pyrrolo[2,3-d]pyrimidin-6-yl)methanone], the ΔTm at 100 µM was greater than 5 °C.
To `COc1ncnc(C2CC2)c1-c1ncc2cc(C(=O)N3CC(F)(C#N)C3)n(Cc3ccc(-c4nc(C(F)(F)F)cn4C(C)C)cc3)c2n1` [Example 72, 1-(2-(4-cyclopropyl-6-methoxypyrimidin-5-yl)-7-(4-(1-isopropyl-4-(trifluoromethyl)-1H-imidazol-2-yl)benzyl)-7H-pyrrolo[2,3-d]pyrimidine-6-carbonyl)-3-fluoroazetidine-3-carbonitrile] belongs greater than 5 °C; to `COc1ncnc(C2CC2)c1-c1ncc2cc(C(=O)N(C)C3CC3)n(Cc3ccc(-c4nc(C(F)(F)F)cn4C(C)C)cc3)c2n1` [Example 76, N-cyclopropyl-2-(4-cyclopropyl-6-methoxypyrimidin-5-yl)-7-(4-(1-isopropyl-4-(trifluoromethyl)-1H-imidazol-2-yl)benzyl)-N-methyl-7H-pyrrolo[2,3-d]pyrimidine-6-carboxamide], greater than 5 °C.
To `COc1ncnc(C2CC2)c1-c1ncc2cc(C(=O)N[C@@H](C)CCO)n(Cc3ccc(-c4nc(C(F)(F)F)cn4C(C)C)cc3)c2n1` [Example 91, (S)-2-(4-cyclopropyl-6-methoxypyrimidin-5-yl)-N-(4-hydroxybutan-2-yl)-7-(4-(1-isopropyl-4-(trifluoromethyl)-1H-imidazol-2-yl)benzyl)-7H-pyrrolo[2,3-d]pyrimidine-6-carboxamide] belongs greater than 5 °C; to `COc1ncnc(C2CC2)c1-c1ncc2cc(C(=O)N3C[C@H]4CC[C@@H](C3)N4C3CC3)n(Cc3ccc(-c4nc(C(F)(F)F)cn4C(C)C)cc3)c2n1` [Example 46, (2-(4-cyclopropyl-6-methoxypyrimid in-5-yl)-7-(4-(1-isopropyl-4-(trifluoromethyl)-1H-imidazol-2-yl)benzyl)-7H-pyrrolo[2,3-d]pyrimidin-6-yl)((1R,5S)-8-cyclopropyl-3,8-diazabicyclo[3 .2.1]octan-3-yl)methanone], greater than 5 °C.
To `COc1ncnc(C2CC2)c1-c1ncc2cc(C(=O)Nc3ccc(CN(C)C)cc3)n(Cc3ccc(-c4nc(C(F)(F)F)cn4C(C)C)cc3)c2n1` [Example 77, 2-(4-cyclopropyl-6-methoxypyrimidin-5-yl)-N-(4-((dimethylamino)methyl)phenyl)-7-(4-(1-isopropyl-4-(trifluoromethyl)-1H-imidazol-2-yl)benzyl)-7H-pyrrolo[2,3-d]pyrimidine-6-carboxamide] belongs greater than 5 °C; to `CNC(=O)c1cc2cnc(-c3c(C4CC4)nc[nH]c3=O)nc2n1Cc1ccc(-c2nc(C(F)(F)F)cn2C(C)C)cc1` [Example 59, 2-(4-cyclopropyl-6-oxo-1,6-dihydropyrimidin-5-yl)-7-(4-(1-isopropyl-4-(trifluoromethyl)-1H-imidazol-2-yl)benzyl)-N-methyl-7H-pyrrolo[2,3-d]pyrimidine-6-carboxamide], less than 5 °C.
For the molecule `COc1ncnc(C2CC2)c1-c1ncc2cc(C(=O)NCCS(C)(=O)=O)n(Cc3ccc(-c4nc(C(F)(F)F)cn4C(C)C)cc3)c2n1` [Example 8, 2-(4-cyclopropyl-6-methoxypyrimidin-5-yl)-7-(4-(1-isopropyl-4-(trifluoromethyl)-1H-imidazol-2-yl)benzyl)-N-(2-(methylsulfonyl)ethyl)-7H-pyrrolo[2,3-d]pyrimidine-6-carboxamide], the thermal shift (ΔTm) at 100 µM was greater than 5 °C.
To `COc1ncnc(C2CC2)c1-c1ncc2cc(C(=O)N3CCS(=O)(=O)CC3)n(Cc3ccc(-c4nc(C(F)(F)F)cn4C(C)C)cc3)c2n1` [Example 27, (2-(4-cyclopropyl-6-methoxypyrimid in-5-yl)-7-(4-(1-isopropyl-4-(trifluoromethyl)-1H-imidazol-2-yl)benzyl)-7H-pyrrolo[2,3-d]pyrimidin-6-yl) (1,1-dioxidothiomor pholino)methanone] belongs greater than 5 °C.
To `COc1ncnc(C2CC2)c1-c1ncc2cc(C(=O)NO)n(Cc3ccc(-c4nc(C(F)(F)F)cn4C(C)C)cc3)c2n1` [Example 120, 2-(4-cyclopropyl-6-methoxypyrimidin-5-yl)-N-hydroxy-7-(4-(1-isopropyl-4-(trifluoromethyl)-1H-imidazol-2-yl)benzyl)-7H-pyrrolo[2,3-d]pyrimidine-6-carboxamide] belongs greater than 5 °C.
In the case of `CNC(=O)c1cc2cnc(-c3c(OC)ncnc3C3CC3)nc2n1Cc1ccc(-n2ccnn2)cc1` [Example 44, 7-(4-(1H-1,2,3-triazol-1-yl)benzyl)-2-(4-cyclopropyl-6-methoxypyrimidin-5-yl)-N-methyl-7H-pyrrolo[2,3-d]pyrimidine-6-carboxamide] it was less than 5 °C; in that of `CNC(=O)c1cc2cnc(-c3c(OC)ncnc3C3CC3)nc2n1Cc1ccc(-n2nc(C(F)(F)F)cc2C(=O)O)cc1` [Example 213, 1-(4-((2-(4-cyclopropyl-6-methoxypyrimidin-5-yl)-6-(methylcarbamoyl)-7H-pyrrolo[2,3-d]pyrimidin-7-yl)methyl)phenyl)-3-(trifluoromethyl)-1H-pyrazol-5-carboxylic acid], less than 5 °C; in that of `COc1ncnc(C2CC2)c1-c1ncc2cc(C(=O)NCCN3CCNCC3)n(Cc3ccc(-c4nc(C(F)(F)F)cn4C(C)C)cc3)c2n1` [Example 98, 2-(4-cyclopropyl-6-methoxypyrimidin-5-yl)-7-(4-(1-isopropyl-4-(trifluoromethyl)-1H-imidazol-2-yl)benzyl) -N-(2-(piperazin-1-yl)ethyl)-7H-pyrrolo[2,3-d]pyrimidine-6-carboxamide], greater than 5 °C.
Take `COc1ncnc(C2CC2)c1-c1ncc2cc(C(=O)N3CCNCC3)n(Cc3ccc(-c4nc(C(F)(F)F)cn4C(C)C)cc3)c2n1` [Example 54, (2-(4-cyclopropyl-6-methoxypyrimid in-5-yl)-7-(4-(1-isopropyl-4-(trifluoromethyl)-1H-imidazol-2-yl)benzyl)-7H-pyrrolo[2,3-d]pyrimidin-6-yl) (piperazin-1-yl)methanone]: the ΔTm at 100 µM was greater than 5 °C.
To `COc1ncnc(C2CC2)c1-c1ncc2cc(C(=O)N3CCCC3(C)C)n(Cc3ccc(-c4nc(C(F)(F)F)cn4C(C)C)cc3)c2n1` [Example 107, (2-(4-cyclopropyl-6-methoxypyrimid in-5-yl)-7-(4-(1-isopropyl-4-(trifluoromethyl)-1H-imidazol-2-yl)benzyl)-7H-pyrrolo[2,3-d]pyrimidin-6-yl)(2,2-dimethylpyrrolidin-1-yl)methanone] belongs greater than 5 °C; to `CNC(=O)c1cc2cnc(-c3c(O)ncnc3C3CC3)nc2n1Cc1ccc(-c2nc(C(F)(F)F)cn2C)cc1` [Example 206, 2-(4-cyclopropyl-6-hydroxypyrimidin-5-yl)-N-methyl-7-(4-(1-methyl-4-(trifluoromethyl)-1H-imidazol-2-yl)benzyl)-7H-pyrrolo[2,3-d]pyrimidine-6-carboxamide], less than 5 °C.
To `COc1ncnc(C2CC2)c1-c1ncc2cc(C(=O)NC3CCN(S(C)(=O)=O)CC3)n(Cc3ccc(-c4nc(C(F)(F)F)cn4C(C)C)cc3)c2n1` [Example 74, 2-(4-cyclopropyl-6-methoxypyrimidin-5-yl)-7-(4-(1-isopropyl-4-(trifluoromethyl)-1H-imidazol-2-yl)benzyl)-N-(1-(methylsulfonyl)piperidin-4-yl)-7H-pyrrolo[2,3-d]pyrimidine-6-carboxamide] belongs greater than 5 °C; to `COc1ncnc(C2CC2)c1-c1ncc2cc(C(=O)N[C@H](C)CO)n(Cc3ccc(-c4nc(C(F)(F)F)cn4C(C)C)cc3)c2n1` [Example 81, (R) -2-(4-cyclopropyl-6-methoxypyrimidin-5-yl)-N-(1-hydroxypropan-2-yl)-7-(4-(1-isopropyl-4-(trifluoromethyl)-1H-imidazol-2-yl)benzyl)-7H-pyrrolo[2,3-d]pyrimidine-6-carboxamide], greater than 5 °C; to `COc1ncnc(C2CC2)c1-c1ncc2cc(C(=O)N3CC(C(F)F)C3)n(Cc3ccc(-c4nc(C(F)(F)F)cn4C(C)C)cc3)c2n1` [Example 96, (2-(4-cyclopropyl-6-methoxypyrimid in-5-yl)-7-(4-(1-isopropyl-4-(trifluoromethyl)-1H-imidazol-2-yl)benzyl)-7H-pyrrolo[2,3-d]pyrimidin-6-yl) (3-(difluoromethyl)azetidin-1-yl)methanone], greater than 5 °C.
